Data on three molecules can be found in patent US5449787A, “N,N'-disubstituted amide derivatives” (Kyorin Pharmaceutical Co., Ltd., priority 1992, dated 1995).

The target in test [1] is T1, 5-HT3 receptor (Rattus norvegicus, UniProt P35563).
T1 sequence (P35563 24-483): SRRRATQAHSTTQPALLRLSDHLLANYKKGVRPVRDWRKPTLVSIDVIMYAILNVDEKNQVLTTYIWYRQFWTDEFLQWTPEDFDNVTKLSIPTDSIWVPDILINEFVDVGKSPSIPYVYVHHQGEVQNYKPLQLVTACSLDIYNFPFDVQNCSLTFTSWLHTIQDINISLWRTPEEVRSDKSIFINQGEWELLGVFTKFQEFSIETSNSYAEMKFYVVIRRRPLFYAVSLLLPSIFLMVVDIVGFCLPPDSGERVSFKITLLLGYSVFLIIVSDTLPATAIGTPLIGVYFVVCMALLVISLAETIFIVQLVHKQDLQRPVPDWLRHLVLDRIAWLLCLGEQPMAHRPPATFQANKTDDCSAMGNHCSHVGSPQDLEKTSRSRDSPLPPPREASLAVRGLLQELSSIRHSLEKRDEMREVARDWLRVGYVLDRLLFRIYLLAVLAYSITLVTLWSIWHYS
Nature of the test: 5-HT3 receptor-binding assay using [3H]GR65630 (rat cerebral cortex synaptic membrane). The settings on record: [3H]GR65630 0.2-0.3 nM, 50 mM HEPES with Triton X-100, 30 minutes at 23° C., nonspecific: 100 μM metoclopramide. Also on record: A crude specimen of synaptic membrane was prepared from the cerebral cortex of rat; from tissue; host or cells: rat cerebral cortex, crude synaptic membrane. An excerpt:
(§1) The compound of the present invention has an antagonistic action to 5-HT receptor, in particular, to 5-HT3 receptor. Affinity of the compound of the present invention to 5-HT3 receptor is shown by a receptor-binding assay [refer to Gavin J. Kilpatrick et al, Eur. J. Pharmacol., 159, 157 (1989)] using [^3 H]GR65630 for a tracer legend. Moreover, the antagonistic action to 5-HT3 receptor is shown through inhibition of von Bezold Jarisch reflex caused by intravenously administering 5-HT to rat.
The specific 5-HT3 receptor-binding assay was performed according to the method by G. J. Kilpatrick et al. using [^3 H] GR 65630 as a tracer ligand.
A crude specimen of synaptic membrane was prepared from the cerebral cortex of rat and used for experiment by suspending it into 50 mM IIEPES buffer (pl 7.4) added with Triton X-100.
Next, testing compounds of several kinds of concentration and tritium-labelled GR 65630 (final concentration 0.2-0.3 nM) were added to the suspension of membrane and allowed to react for 30 minutes at 23° C. After the reaction, the reaction mixture was filtered under suction and the filter was washed with 50 mM HEPES buffer. Then, the radioactivity left behind on the filter was determined with a liquid scintillation counter.
The nonspecific binding was determined in the presence of 100 μM metoclopramide.
Then, 50% inhibitory concentration (IC50) of the compounds of Examples 10 through 12 was determined graphically (Table 1).

Test [2] addresses T1, 5-HT3 receptor. Nature of the test: Antagonistic action on von Bezold Jarisch reflex. Format: in vivo. Also on record: Under the anesthetization of rat with urethane/chloralose; from tissue; host or cells: whole anaesthetized rat (in vivo); receptor endogenous, by own knowledge on vagal afferents. The settings on record: urethane/chloralose-anesthetized rat, 5-HT 1 mg/kg intravenous; dose of test compound not given.
Description: as §1
The antagonistic action of testing compounds to 5-HT3 was assayed according to the method described in Naunyn-Schmiedeberg's Arch. Pharmacol., vol. 326, 36 (1984).
Under the anesthetization of rat with urethane/chloralose, the blood pressure was monitored with hemodynamometer frown carotid arteries and the heart rate was monitored from electrocardiogram.

Structures can show the parent of a compound that is named as a salt.

As for `CN(C)C1CCN(C(=O)c2nn(C)c3ccccc23)C1` (centres unmarked) [Example 11, 3-Dimethylamino-(1-methylindazol-3-ylcarbonyl)pyrrolidine hydrochloride], the half-maximal inhibitory concentration (IC50) on 5-HT3 receptor [1] came to 3 nM.

Regarding `CCN(C)[C@@H]1CN(C(=O)c2cn(C)c3ccccc23)C[C@@H]1C` (relative stereo) [Example 12, Cis-3-(N-ethyl-N-methyl)amino-4-methyl-1-(1-methylindol-3-ylcarbonyl)pyrrolidine hydrochloride], the IC50 at 5-HT3 receptor [1] came out at 2 nM. On 5-HT3 receptor [2], the “inhibition of reflex bradycardia caused by intravenous 5-HT (von Bezold Jarisch reflex)” value was “inhibited the reflex bradycardia”. `CCN(C)[C@@H]1CN(C(=O)c2nn(C)c3ccccc23)C[C@@H]1C` (relative stereo) [Example 10, Cis-3-(N-ethyl-N-methyl)amino-4-methyl-1-(1-methylind-azol-3-ylcarbonyl)pyrrolidine hydrochloride] returned an IC50 at 5-HT3 receptor [1] of 1 nM. For the same molecule, at 5-HT3 receptor [2], the “inhibition of reflex bradycardia caused by intravenous 5-HT (von Bezold Jarisch reflex)” value is on record as “inhibited the reflex bradycardia”.

A word on the IC50: it is the concentration that inhibits the measured activity by half. Lower therefore signals higher potency.
